Experimental data taken from patent publication US20140196172A1, “Organelle Targeting Nanocarriers” (Her Majesty the Queen in Right of Canada, as Repre sented …, priority 2011, published 2014).

Legend:
[1] = test system: mitochondria of triticale protoplasts; assay: qRT-PCR of gfp mRNA, protoplasts transfected with pWMaadA16GFP; type: cell-based; settings: gfp reporter construct
Description: FIG. 19 is a plot showing the level of expression (fold increase, average of 4 replicates) of GFP in triticale protoplasts transfected with the pWMaadA16GFP plasmid in the presence of mTP1 (SEQ ID NO: 1), mTP2 (SEQ ID NO: 2), mTP3 (SEQ ID NO: 3), mTP4 (SEQ ID NO: 4) or mTP5 (SEQ ID NO: 5) compared to the level of expression (fold increase) of the internal control elongation factor 1a (EF1a), as measured by quantitative real time PCR of mRNA levels; and
Wheat mitochondrial aadA16GFP reporter plasmid (pWMaadA16GFP, FIG. 11) is a 4587 base pair wheat specific mitochondrial transformation vector, which targets insertions into the fourth repeat region between the trnfM and rm18 gene cluster which is repeated three times in the Triticum aestivum mitochondrial genome. The insertion site is in the Triticum aestivum mitochondrial genome at nucleotides 300805-300878 and 300880-302834 (GenBank accession No. AP008982.1). A multiple cloning site is introduced following the tmfM target insertion sequence. The selection marker gene is an organelle codon specific aad-gfp fusion gene, which facilitates a dual selection method of spectinomycin resistance through an aadA derivative and visual detection by GFP fluorescence (GenBank accession No. ABX39486; Khan and Maliga, Nat. Biotechnol. (1999 September) 17(9): 910-5). The selection marker gene is driven by the Triticum aestivum mitochondrial atpA gene promoter (GenBank accession No. X54387.1). The aad-gfp fusion gene is terminated with the TpsbA terminator sequence derived from the Triticum aestivum mitochondrial genome at nucleotides 62871-62565 (GenBank accession No. AP008982.1).
The dsDNA construct (pWMaadA16GFP for mitochondrial expression or pWCaadA16GFP for expression in chloroplasts) is combined with the mTP (for mitochondrial expression) or cTP (for expression in chloroplasts) in a final volume of 100 μl of CPW solution. For experiments using mTP1 (SEQ ID NO: 1), mTP2 (SEQ ID NO: 2), mTP3 (SEQ ID NO: 3), or mTP5 (SEQ ID NO: 5), peptides (scaled up from 100 ng, at four times the concentration needed to cause a DNA shift in the gel mobility shift assay (Table 7)) are combined with the pWMaadA16GFP construct (5 μg). For experiments using the remaining oTPs, peptides (30 μg) are combined with the appropriate dsDNA construct (1.5 μg). The mixture is incubated for 10 minutes at room temperature, then incubated with isolated triticale mesophyll protoplasts (500 μl, 10^6 protoplasts/ml, prepared as described in Example 2) for 1 h in the dark at room temperature. CPW solution (500 μl) is added and the mixture is incubated in the dark for 24 h. The cells are imaged using confocal microscopy, as described in Example 2, using MitoTracker® Orange staining to visualize mitochondria and chlorophyll autofluorescence to visualize chloroplasts.
cDNA is generated using a First Strand Synthesis kit (Invitrogen). RNA (1 μg) is added to each sample and the manufacturer's protocol for synthesis followed, with the exception that the volume of the reaction mixture is increased from 20 μl to 30 μl. A negRT sample containing all reagents but no RNA is included in the cDNA synthesis as a negative control.
Standard curves are generated for both elongation factor 1a (EF1a) (internal control) and green fluorescent protein (GFP) (test) genes. […]
Real time PCR reactions are performed using QuantiTect™ SYBR™ Green PCR Master Mix (Qiagen) in a 20 μl reaction volume. […]

tobacco protoplasts = assay: Incubation of tobacco protoplasts with fluorescently labeled peptides, confocal microscopy; type: cell-based, Nicotiana benthamiana; settings: fluorescein-labelled peptide 20 μM, 1 hour, confocal (Olympus)
Procedure: Nicotiana benthamiana plants are grown for 6-8 weeks and kept in the dark for 24 hrs prior to all experiments. All pipetting is done slowly with wide bore pipette tips to prevent protoplast lysis. Leaves are cut on the underside in many shallow thin slices, with the center vein taken out, and incubated underside down with enzyme digest solution [2% cellulase and 2% macerozyme (Yakult Honsha Co Ltd, Japan) in CPW (cell protoplast washing) solution, pH 5.6 (Frearson E M, Power J B, Cocking E C (1973) Dev Biol 33: 130-137)] in […] Petri dishes for 3-5 hrs at 28° C. After incubation, leaves are gently shaken with forceps to release any remaining protoplasts, and medium is gently filtered through […] sieves and transferred into 50 mL centrifuge tubes. The medium is spun for 5 min at 300 g at 4° C., and a floating band of protoplasts is removed from the top of the suspension, resuspended in W5 wash solution (154 mM NaCl, 125 mM CaCl2.2H2O, 5 mM KCl, 5 mM glucose, 0.5 M mannitol adjusted to pH 5.8 with 0.1 M KOH), and spun for 3 mins at 300 g at 4° C. The pellet is gently layered on 5 mL of 20% maltose in a 15 mL centrifuge tube, and centrifuged 5 mins at 300 g. A floating band in the center of the solution is carefully removed and resuspended with MaMg solution (15 mM MgCl2, 0.1% MES, 0.4 M mannitol, adjusted to pH 5.6 with KOH), and spun for 3 mins at 300 g at 4° C. The protoplast suspension is diluted to 100,000 cells/ml using a hemocytometer.
A stock solution of fluoresceinated mTPs or cTPs (100 μM) prepared with sterile optimum water is added to protoplast suspension at a final concentration of 20 μM. Each suspension is incubated at room temperature for 1 hour in the dark. Following incubation, 25% Trypsin EDTA is added for 5 minutes and the solution is centrifuged for 2 minutes at 120 g. The pellet is resuspended in fresh MaMg media, and 1.5 μL MitoTracker® Orange CM-H2TMRos (M7511, Invitrogen) is added for 15 minutes, followed by centrifugation for 2 minutes at 120 g. Protoplasts are mounted on slides in 1% low melting point agar (2:1 ratio of agar to protoplast suspension) for confocal microscopy (Olympus; both XY cross section and XYZ depth images).
Cells are observed using a confocal microscope (Nikon C1, Nikon Canada Inc. or Olympus FluoView™) to analyse the localization of the fluoresceinated mTPs or cTPs (excitation wavelength 490 nm/emission wavelength 520 nm). Chloroplasts are identified by autofluorescence. The fluorescent dye MitoTracker® Orange CM-H2TMRos (M7511, Invitrogen) is used to stain mitochondria (excitation wavelength 554 nm/emission wavelength 576 nm). Fluorescence emissions are collected in z-confocal planes of […] and analyzed using EZ-C1 Software Version 3.6 (Nikon) or Olympus FluoView™ software version 2.0b (Olympus).

Row | Sequence | GFP expression by mitochondria confirmed by qRT-PCR [1] | Organelle localization (tobacco protoplasts)
1 | MLFRLRRSVRLRGLLA (listed as Arabidopsis thaliana) [mTP5] | GFP is expressed | 
2 | MWWRRSRTNSLRYT (listed as Arabidopsis thaliana) [mTP4] | GFP is expressed | 
3 | MAALIPAIASLPRAQVEKPHPMPVSTRPGLVS (listed as Triticum aestivum) [cTP4] |  | localize to chloroplasts
4 | MAAWMRSLFSPLKKLWIRMH (Zea mays) [mTP2] | GFP is expressed | localize to mitochondria
5 | MGGCVSTPKSCVGAKLR (listed as Arabidopsis thaliana) [cTP1] |  | localize to chloroplasts
6 | MSSPPPLFTSCLPASSPSIRRDSTSGSVTSPLR (listed as Arabidopsis thaliana) [cTP5] |  | localize to chloroplasts
7 | MQTLTASSSVSSIQRHRPHPAGRRSSSVTFS (listed as Triticum aestivum) [cTP2] |  | localize to chloroplasts
8 | MKLLWRLILSRKW (listed as Arabidopsis thaliana) [mTP3] | GFP is expressed | localize to mitochondria
9 | MFSYLPRYPLRAASARALVRATRPSYRSALLRYQ (listed as Triticum aestivum) [mTP1] | GFP is expressed | 
